The text below walks through data of PubChem BioAssay (NCI).

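All cell lines were grown in 96-well plates and treated with compound for 48 hours. TGI denotes the concentration required for complete inhibition of growth.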 A value given as a limit tells only on which side of the number the result lay.

Test systems include OVCAR-5 ovarian; EKVX NSCLC; HCT-116 colon; MCF7 breast; SNB-19 CNS; SF-539 CNS; MDA-MB-231 breast; OVCAR-3 ovarian; MDA-N; SR leukemia; RPMI-8226 leukemia; CCRF-CEM leukemia; ACHN renal; MDA-MB-435; NCI-H460 lung; UO-31 renal; SK-OV-3 ovarian; HOP-62 NSCLC; RXF 393 renal; OVCAR-4 ovarian.
Common to all, as to assay: NCI-60 cell line screen, 48 h

In the case of `O=P1(Oc2ccccc2)N=P(c2ccccc2)(c2ccccc2)C=C(c2ccc(Cl)cc2)N1` (stereo not given), the TGI stood at 28.2 µM in the test on OVCAR-5 ovarian; 21.6 µM with EKVX NSCLC; 30.5 µM in the test on HCT-116 colon; 9.31 µM in the test on MCF7 breast; 29.7 µM in the test with SNB-19 CNS; 28.9 µM in the test with SF-539 CNS. The TGI in the test on MDA-MB-231 breast was found to be 32.1 µM; with OVCAR-3 ovarian, 13.6 µM; in the test on MDA-N, 22.8 µM; in the test with SR leukemia, 21.5 µM; in the test on RPMI-8226 leukemia, 9.55 µM; with CCRF-CEM leukemia it was 26.6 µM. The TGI in the test on ACHN renal was 25.6 µM; in the test on MDA-MB-435 it was 17.1 µM; with NCI-H460 lung, 18.5 µM; with UO-31 renal it was 25.8 µM; with SK-OV-3 ovarian, 26 µM; with HOP-62 NSCLC, 33.6 µM.

On to `Nc1ccc2nc3c(nc2c1)C(=O)c1ccccc1-3`, for which the TGI in the test with OVCAR-5 ovarian, with EKVX NSCLC, with HCT-116 colon, in the test on RXF 393 renal, with MCF7 breast and in the test with SNB-19 CNS was > 100 µM each time. The TGI with SF-539 CNS, in the test on MDA-MB-231 breast, with OVCAR-3 ovarian, in the test with MDA-N, in the test with RPMI-8226 leukemia and with CCRF-CEM leukemia was > 100 µM each time. In addition, the TGI in the test on ACHN renal, with MDA-MB-435, with NCI-H460 lung, in the test with OVCAR-4 ovarian, in the test with SK-OV-3 ovarian and in the test with HOP-62 NSCLC was > 100 µM throughout.

As to `CC(=O)C1C(=O)C(=O)N(c2ccccc2)C1=O` (stereo not given), the TGI in the test with OVCAR-5 ovarian, in the test with EKVX NSCLC, with HCT-116 colon, with RXF 393 renal, in the test with MCF7 breast and in the test with SNB-19 CNS was > 100 µM each time. Besides, the TGI with SF-539 CNS, in the test on MDA-MB-231 breast, in the test on OVCAR-3 ovarian, with MDA-N, in the test on CCRF-CEM leukemia and in the test with ACHN renal was > 100 µM each time. For the same compound, the TGI in the test on MDA-MB-435, with NCI-H460 lung, with UO-31 renal, with OVCAR-4 ovarian, in the test with SK-OV-3 ovarian and in the test with HOP-62 NSCLC was > 100 µM each time.

Take `CC(=O)OCC(C)C1=C(OC(C)=O)C(=O)C2(C)C/C=C(/C)CC/C=C(\C)CCC(OC(C)=O)C(C)CCC12` (stereo not given): the TGI in the test with OVCAR-5 ovarian turned out to be 25.4 µM; in the test with HCT-116 colon, 36 µM; with MCF7 breast it was 38.2 µM; in the test with SNB-19 CNS, 43.9 µM; with SF-539 CNS, 38.7 µM; with MDA-MB-231 breast it was 27.7 µM. The TGI with MDA-N was 33.5 µM; in the test with SR leukemia, 40.3 µM; in the test with RPMI-8226 leukemia it was 35.3 µM; in the test with CCRF-CEM leukemia, 40.9 µM; in the test with ACHN renal, 39.3 µM; in the test on MDA-MB-435, 38.2 µM. The TGI with NCI-H460 lung turned out to be 10.8 µM; with UO-31 renal it was 31.2 µM; with OVCAR-4 ovarian, 82.3 µM; in the test on HOP-62 NSCLC, 27.5 µM.

For the compound `CC(C)C1OC(N)=C(C#N)C1(C#N)C#N` (stereo not given), the TGI with OVCAR-5 ovarian, with EKVX NSCLC, in the test with HCT-116 colon, with RXF 393 renal, in the test with MCF7 breast and in the test with SNB-19 CNS was > 100 µM each time. The TGI in the test with SF-539 CNS is > 100 µM; with MDA-MB-231 breast, > 100 µM; with MDA-N, > 100 µM; in the test on RPMI-8226 leukemia it was 79.2 µM; in the test on CCRF-CEM leukemia, 91.4 µM; in the test with ACHN renal, > 100 µM. The TGI with MDA-MB-435, with UO-31 renal, in the test on SK-OV-3 ovarian and in the test on HOP-62 NSCLC was > 100 µM in each case.

Regarding `O=Cc1c2n(c3ccccc13)N[C@@](Cc1ccc(O)cc1)(C(=O)O)C2`, the TGI in the test with OVCAR-5 ovarian, in the test with EKVX NSCLC, in the test with HCT-116 colon, in the test with MCF7 breast, with SNB-19 CNS and with SF-539 CNS was > 100 µM each time. The TGI in the test with MDA-MB-231 breast, in the test on OVCAR-3 ovarian, in the test with MDA-N, in the test with SR leukemia, with RPMI-8226 leukemia and with CCRF-CEM leukemia was > 100 µM throughout. For the same compound, the TGI in the test on ACHN renal, in the test with MDA-MB-435, with UO-31 renal, with OVCAR-4 ovarian, in the test with SK-OV-3 ovarian and in the test on HOP-62 NSCLC was > 100 µM in each case.

In the case of `CN(C)CCNc1nc2ccccc2c2c1CCCC2`, the TGI in the test with OVCAR-5 ovarian was > 100 µM; with EKVX NSCLC it was > 100 µM; with HCT-116 colon it was 30.2 µM; in the test on RXF 393 renal, 22.9 µM; with MCF7 breast, 29.1 µM; in the test with SNB-19 CNS, > 100 µM. Further, the TGI was > 100 µM in the test on SF-539 CNS; 33.6 µM in the test with MDA-MB-231 breast; > 100 µM with OVCAR-3 ovarian; 33.9 µM in the test with MDA-N; 46.7 µM in the test with RPMI-8226 leukemia; 65.3 µM in the test on ACHN renal. The TGI is 36.1 µM in the test with MDA-MB-435; 31 µM in the test with NCI-H460 lung; 27.5 µM in the test with UO-31 renal; > 100 µM with OVCAR-4 ovarian; 42.9 µM in the test with SK-OV-3 ovarian; 35.8 µM in the test on HOP-62 NSCLC.

Regarding `CCOc1ccc2nc3nc(=O)[nH]c(C)c3c(NCCCN(CC)CC)c2c1`, the TGI with OVCAR-5 ovarian, in the test with EKVX NSCLC, in the test with HCT-116 colon, in the test on RXF 393 renal, in the test with MCF7 breast and with SNB-19 CNS was > 100 µM throughout. For the same compound, the TGI in the test with SF-539 CNS, in the test on MDA-MB-231 breast, with OVCAR-3 ovarian, in the test on MDA-N, with CCRF-CEM leukemia and in the test with ACHN renal was > 100 µM throughout. The TGI in the test on MDA-MB-435, in the test on NCI-H460 lung, with UO-31 renal, in the test on OVCAR-4 ovarian, in the test with SK-OV-3 ovarian and with HOP-62 NSCLC was > 100 µM throughout.
